Data published in publication PMC2248166, “Quantitative peptide binding motifs for 19 human and mouse MHC class I molecules derived using positional scanning combinatorial peptide libraries” (Immunome Research, 2008).

Columns and labels:
HLA A*3001 = HLA A*3001 (Homo sapiens, UniProt P04439, D140H/D185E/E176W/F33S/G80R/H175R/K168Q/R138E/R41S); assay: biochemical; assay type: binding
HLA A*3201 = HLA A*3201 (Homo sapiens, UniProt P04439, A270S/D101S/D185E/E176V/E277Q/F133L/G103R/G107R/G231S/H175R/I121M/I218V/I322F/K168Q/L105A/L300P/L318F/M331R/P208A/P217A/Q94H/R106L/R138Q/S129P/T104I/T323A/T345S/V100E/V321M/V358M); assay: biochemical; assay type: binding
HLA A*6802 = HLA A*6802 (Homo sapiens, UniProt P04439, A269V/D140Y/D185E/E176V/E277Q/E87N/F33Y/G231S/I121R/I166T/I218V/L180W/L300P/L318F/N151K/P208A/P217A/Q86R/R138H/R169H/S129P/T345S/V36M); assay type: binding
HLA B*0702 = HLA B*0702 (Homo sapiens, UniProt P01889); assay type: binding; conditions: positional scanning combinatorial 9-mer library; normalized to 1.0 for the best residue at each position
HLA B*0801 = HLA B*0801 (Homo sapiens, UniProt P01889, A93T/A95T/D138N/E176V/E187T/K202T/Q94N/R180D/S35A/V36M/Y33D/Y91F); assay: biochemical; assay type: binding
HLA B*1501 = HLA B*1501 (Homo sapiens, UniProt P01889, A329T/A93T/A95T/C349S/D201E/D98Y/E187L/E204Q/E69M/E70A/K202T/N87E/Q94N/R155S/R180W/S121R/S35A/S48A/V306I/V36M/Y140S/Y91S); assay: biochemical; assay type: binding
HLA B*1503 = HLA B*1503 (Homo sapiens, UniProt P01889, A329T/A93T/A95T/C349S/D201E/D98Y/E187L/E204Q/K202T/N87E/Q94N/R155S/R180L/S121R/S35A/V306I/V36M/Y140S/Y91S); assay: biochemical; assay type: binding
HLA B*2705 = HLA B*2705 (Homo sapiens, UniProt P01889, D138H/D201E/E176V/E204Q/G107R/H137Y/K202T/N104T/N87E/Q56L/Q94K/R106L/R155S/R180L/S101D/S121N/S48T/Y140D/Y33H/Y91C); assay type: binding; conditions: positional scanning combinatorial 9-mer library; normalized to 1.0 for the best residue at each position
HLA B*3501 = HLA B*3501 (Homo sapiens, UniProt P01889, A329T/A93T/A95T/C349S/D201E/D98Y/E176V/E187L/E204Q/E69T/I218V/K202T/L119I/Q94N/R155S/R180L/S121R/S35A/S48A/T118I/V127L/V306I/V36M/Y140S/Y91F); assay type: binding
HLA B*5101 = HLA B*5101 (Homo sapiens, UniProt P01889, A329T/A93T/A95T/C349S/D138N/D201E/D98Y/E187L/E204Q/E69T/G107R/I218V/K202T/L105A/L119W/N104I/Q94N/R106L/R155S/R180L/S101N/S121T/S35A/S48A/V306I/V36M/Y195H/Y91F); assay type: binding
HLA B*5301 = HLA B*5301 (Homo sapiens, UniProt P01889, A329T/A93T/A95T/C349S/D201E/D98Y/E176V/E187L/E204Q/E69T/G107R/I218V/K202T/L105A/L119I/N104I/Q94N/R106L/R155S/R180L/S101N/S121R/S35A/S48A/T118I/V127L/V306I/V36M/Y140S/Y91F); assay type: binding
HLA B*5401 = HLA B*5401 (Homo sapiens, UniProt P01889, A329T/C349S/D138N/D201E/E176V/E187T/E204Q/E69G/I76V/K202T/L119W/R155S/R180L/S121T/S35A/S48A/V127L/V306I/V36M/Y140L); assay type: binding
HLA B*5801 = HLA B*5801 (Homo sapiens, UniProt P01889, A329T/C349S/D201E/D98Y/E176V/E187L/E204Q/E69T/G107R/I218V/I90N/K202T/L105A/L119I/N104I/N87E/Q89R/Q94S/R106L/R155S/R180L/R86G/S101N/S121R/S35A/S48A/T118I/V127L/V306I/V36M/Y140S/Y91M); assay type: binding
HLA B*5802 = HLA B*5802 (Homo sapiens, UniProt P01889, A329T/C349S/D201E/D98Y/E176V/E187L/E204Q/E69T/G107R/I218V/I90N/K202T/L105A/N104I/N87E/Q89R/Q94S/R106L/R155S/R180L/R86G/S101N/S121W/S35A/S48A/V127L/V306I/V36M/Y140S/Y91M); assay type: binding
H-2 D^b = H-2 D^b (Mus musculus, UniProt P01899); assay type: binding
Sequence of H-2 D^b (P01887 21-119): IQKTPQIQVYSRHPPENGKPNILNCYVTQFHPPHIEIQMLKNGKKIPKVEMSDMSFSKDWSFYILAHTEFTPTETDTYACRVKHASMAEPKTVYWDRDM
Sequence of H-2 D^b (P01899 25-362): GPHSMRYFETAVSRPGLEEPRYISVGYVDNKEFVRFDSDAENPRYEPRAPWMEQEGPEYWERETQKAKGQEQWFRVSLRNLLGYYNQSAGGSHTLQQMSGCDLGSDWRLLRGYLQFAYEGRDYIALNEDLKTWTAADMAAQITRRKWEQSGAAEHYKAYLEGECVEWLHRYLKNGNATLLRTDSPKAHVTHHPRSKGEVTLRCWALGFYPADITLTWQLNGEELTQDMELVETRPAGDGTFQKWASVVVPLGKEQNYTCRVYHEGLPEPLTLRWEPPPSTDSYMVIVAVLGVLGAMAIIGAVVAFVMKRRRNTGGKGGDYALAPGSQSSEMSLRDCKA

H-2 D^d = H-2 D^d (Mus musculus, UniProt P01900); assay type: binding
Sequence of H-2 D^d (P01900 whole entry, looked up): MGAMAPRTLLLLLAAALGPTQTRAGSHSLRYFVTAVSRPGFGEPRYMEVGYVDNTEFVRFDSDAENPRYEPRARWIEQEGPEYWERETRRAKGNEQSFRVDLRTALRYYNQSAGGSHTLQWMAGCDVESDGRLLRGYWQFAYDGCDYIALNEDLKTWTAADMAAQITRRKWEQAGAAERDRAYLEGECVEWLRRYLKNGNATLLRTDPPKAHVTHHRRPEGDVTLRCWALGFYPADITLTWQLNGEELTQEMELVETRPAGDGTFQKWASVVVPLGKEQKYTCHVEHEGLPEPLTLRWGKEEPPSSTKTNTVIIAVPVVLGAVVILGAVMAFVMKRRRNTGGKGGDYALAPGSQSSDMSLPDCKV

H-2 K^k = H-2 K^k (Mus musculus, UniProt P04223); assay type: binding
Sequence of H-2 K^k (P01887 21-119): as the sequence (P01887 21-119) above
Sequence of H-2 K^k (P04223 22-369): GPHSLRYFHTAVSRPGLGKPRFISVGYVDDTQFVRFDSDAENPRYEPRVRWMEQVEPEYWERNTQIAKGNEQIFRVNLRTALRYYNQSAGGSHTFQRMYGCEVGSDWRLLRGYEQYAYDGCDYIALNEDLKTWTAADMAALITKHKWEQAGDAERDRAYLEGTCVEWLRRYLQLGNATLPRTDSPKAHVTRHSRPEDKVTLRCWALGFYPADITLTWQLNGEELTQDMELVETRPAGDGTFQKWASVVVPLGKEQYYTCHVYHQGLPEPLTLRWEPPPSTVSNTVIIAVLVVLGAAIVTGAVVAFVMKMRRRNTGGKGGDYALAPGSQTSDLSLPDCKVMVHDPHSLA

HLA A*0201 = HLA A*0201 (Homo sapiens, UniProt P04439, D140Y/D185E/D98H/E176V/E277Q/G131W/G231S/I119V/I121R/I166T/I218V/L300P/L318F/N151K/N90K/P208A/P217A/Q86G/Q94H/R138H/R169H/T345S); conditions: positional scanning combinatorial 9-mer library; normalized to 1.0 for the best residue at each position

Row | Sequence | Normalized average relative binding affinity (ARB), HLA A*3001 (HLA A*3001) | Normalized average relative binding affinity (ARB), HLA A*3201 (HLA A*3201) | Normalized average relative binding affinity (ARB), HLA A*6802 (HLA A*6802) | Normalized average relative binding affinity (ARB), HLA B*0702 (HLA B*0702) | Normalized average relative binding affinity (ARB), HLA B*0801 (HLA B*0801) | Normalized average relative binding affinity (ARB), HLA B*1501 (HLA B*1501) | Normalized average relative binding affinity (ARB), HLA B*1503 (HLA B*1503) | Normalized average relative binding affinity (ARB), HLA B*2705 (HLA B*2705) | Normalized average relative binding affinity (ARB), HLA B*3501 (HLA B*3501) | Normalized average relative binding affinity (ARB), HLA B*5101 (HLA B*5101) | Normalized average relative binding affinity (ARB), HLA B*5301 (HLA B*5301) | Normalized average relative binding affinity (ARB), HLA B*5401 (HLA B*5401) | Normalized average relative binding affinity (ARB), HLA B*5801 (HLA B*5801) | Normalized average relative binding affinity (ARB), HLA B*5802 (HLA B*5802) | Normalized average relative binding affinity (ARB), H-2 Db (H-2 D^b) | Normalized average relative binding affinity (ARB), H-2 Dd (H-2 D^d) | Normalized average relative binding affinity (ARB), H-2 Kk (H-2 K^k) | Normalized average relative binding affinity (ARB), HLA A*0201 (HLA A*0201)
1 | XXNXXXXXX [3064.0052] | 0.017 | 0.76 | 0.27 | 0.077 | 0.11 | 0.46 | 0.24 | 0.23 | 0.32 | 0.27 | 0.22 | 0.14 | 0.88 | 0.098 | 0.25 | 0.0028 | 0.40 | 0.16
2 | XXQXXXXXX [3064.0054] | 0.014 | 0.45 | 0.12 | 0.19 | 0.062 | 0.30 | 0.062 | 0.12 | 0.27 | 0.20 | 0.13 | 0.055 | 0.15 | 0.098 | 0.098 | 0.012 | 0.42 | 0.20
3 | XDXXXXXXX [3064.0023] | 0.012 | 0.025 | 0.0075 | 0.0029 | 0.014 | 0.0094 | 0.0054 | 0.0016 | 0.018 | 0.022 | 0.0088 | 0.0009 | 0.0033 | 0.030 | 0.036 | 0.013 | 0.13 | 0.0016
4 | XLXXXXXXX [3064.0030] | 0.16 | 0.29 | 0.097 | 0.016 | 0.72 | 0.52 | 0.18 | 0.0053 | 0.035 | 0.022 | 0.035 | 0.0037 | 0.043 | 0.13 | 0.18 | 0.035 | 0.062 | 1.0
